Test results reported in patent US8901305B2, “Aryl lactam kinase inhibitors” (Bristol-Myers Squibb Company, priority 2012, dated 2014).

Legend:
[1] = target: T1, AAK1 (full length human) with AP2M1 in HEK293F cells (Homo sapiens, UniProt Q2M2I8); assay: HEK281 cell-based assay (phospho-mu2 Western blot in transfected HEK293F cells); conditions: 3 hours, inhibition of mu2 phosphorylation
T1 construct: expressed in transfected cells; host or cells: HEK293F
Description: HEK293F cells were cultured in media containing DMEM (Gibco, cat. #11965), 10% FBS (SAFC Biosciences, cat. #12103C), 1×GPS (glutamine, penicillin and streptomycin). On day one, cells were plated on a 10 cm dish so that they are ˜80% confluent at time of transfection. Roughly 12 million cells were in a 10 cm dish at time of transfection. On day two, each dish was transfected with 48 ug DNA and 144 ul Lipofectamine 2000 (Invitrogen, cat. #11668-019). The DNA was comprised of a mixture (per 10 cm dish) containing 3 ug AAK1/HA/pIRES (full length human, NCBI accession no. NP_055726.2), 45 μg Flag/AP2MI/pcDNA (full length human), and 1.5 ml OPTI-MEM. The Lipofectamine 2000 is made up of a mixture (per 10 cm dish) containing 144 μl Lipofectamine 2000 and 1.5 ml OPTI-MEM. Each mixture was transferred to individual 15 ml tubes and incubated at RT for 5 minutes, and then the two mixes were combined and incubated at RT for 20 minutes. Growth media was then aspirated from each 10 cm plate and replaced with 10 ml of DMEM+10% FBS (no GPS). Finally, 3 ml DNA/Lipofectamine mix was added to each 10 cm dish and mix gently followed by incubate of plate overnight at 37° C. and 5% CO2.
On day three, compounds were diluted in 100% DMSO at 1000× final concentration, followed by 3-fold serial dilutions for a total of 5 concentrations tested. Four compounds were tested per 10 cm dish. One ul of each compound dilution was then pipetted into a deep-well, 96-well plate, followed by addition of 500 μl DMEM+0.5% FBS into each well for a 2× final concentration of each compound. Cells were resuspended in a 10 cm dish by simple pipetting (HEK293 cells come off the plate that easy at this point) and then transferred to a 50 ml conical tube and pelleted by centrifugation at 1000 rpm for 5 min. Cell pellets were then resuspended in 2.75 ml DMEM+0.5% FBS per 10 cm dish and 100 μl of cell suspension transferred into each well of 96-well TC plate. Finally, 100 μl of 2× compound diluted in DMEM+0.5% FBS was then added into wells containing cell suspension for a 1× final concentration. Plates were then incubated at 37° C. and 5% CO2 for 3 hours followed by transferring of cell suspensions from each well into 12-tube PCR strips. The PCR strips were spun in a tip rack at 1000 rpm for 5 minutes to pellet cells and media was then removed by pipetting without disturbing the cell pellet.
To prepare for Western Blot analysis, cell pellets were resuspend in 40 ul 1×LDS-PAGE sample buffer (Invitrogen, cat. # NP0008)+2× Halt phosphatase and protease inhibitor cocktail (Thermo Scientific, cat. #1861284), followed by sonicating each with microtip sonicator set at 5 for 8-10 seconds. Five ul of 10× NuPage Sample Reducing Agent (with […]) was to each sample followed by heat denaturing at 70 C for 10 min on PCR machine. A total of 10 μl per sample was loaded into each lane of a 4-20% Tris-Glycine Criterion 26-well gel (Biorad, cat. #345-0034) for the phospho-mu2 blot and 10 μl per lane in a 4-12% Bis-Tris (+MES buffer) NuPAGE 26-well gel (Invitrogen, cat. # WG1403BX10) for the mu2 blot. For controls, 2 ng of phospho-mu2 or 20 ng mu2/Flag proteins were loaded in the last well of each gel. After SDS-PAGE, samples on each gel were transferred to PVDF membrane using an iBlot and membranes were blocked for one hour in TBST+5% milk, followed by wash 3× for 5-10 min with TBST. Criterion gels were probed with rabbit anti-phospho-mu2 (1:5000; a rabbit polyclonal antibody produced by New England Peptide and affinity purified at Lexicon) in TBST+5% BSA, whereas, NuPAGE gels were probed with mouse anti-Flag (1:500; Sigma, cat. # F1804) in TBST+5% milk, and these primary antibodies were incubated overnight at 4° C. on a rocker. […]

[2] = target: T2, GST-Xa-hAAK1 (Homo sapiens, UniProt Q2M2I8); assay: AAK1 kinase assay; type: biochemical; conditions: ATP 22 μM, 3 hours at room temperature
T2 construct: made in house
T2 sequence (Q2M2I8 whole entry): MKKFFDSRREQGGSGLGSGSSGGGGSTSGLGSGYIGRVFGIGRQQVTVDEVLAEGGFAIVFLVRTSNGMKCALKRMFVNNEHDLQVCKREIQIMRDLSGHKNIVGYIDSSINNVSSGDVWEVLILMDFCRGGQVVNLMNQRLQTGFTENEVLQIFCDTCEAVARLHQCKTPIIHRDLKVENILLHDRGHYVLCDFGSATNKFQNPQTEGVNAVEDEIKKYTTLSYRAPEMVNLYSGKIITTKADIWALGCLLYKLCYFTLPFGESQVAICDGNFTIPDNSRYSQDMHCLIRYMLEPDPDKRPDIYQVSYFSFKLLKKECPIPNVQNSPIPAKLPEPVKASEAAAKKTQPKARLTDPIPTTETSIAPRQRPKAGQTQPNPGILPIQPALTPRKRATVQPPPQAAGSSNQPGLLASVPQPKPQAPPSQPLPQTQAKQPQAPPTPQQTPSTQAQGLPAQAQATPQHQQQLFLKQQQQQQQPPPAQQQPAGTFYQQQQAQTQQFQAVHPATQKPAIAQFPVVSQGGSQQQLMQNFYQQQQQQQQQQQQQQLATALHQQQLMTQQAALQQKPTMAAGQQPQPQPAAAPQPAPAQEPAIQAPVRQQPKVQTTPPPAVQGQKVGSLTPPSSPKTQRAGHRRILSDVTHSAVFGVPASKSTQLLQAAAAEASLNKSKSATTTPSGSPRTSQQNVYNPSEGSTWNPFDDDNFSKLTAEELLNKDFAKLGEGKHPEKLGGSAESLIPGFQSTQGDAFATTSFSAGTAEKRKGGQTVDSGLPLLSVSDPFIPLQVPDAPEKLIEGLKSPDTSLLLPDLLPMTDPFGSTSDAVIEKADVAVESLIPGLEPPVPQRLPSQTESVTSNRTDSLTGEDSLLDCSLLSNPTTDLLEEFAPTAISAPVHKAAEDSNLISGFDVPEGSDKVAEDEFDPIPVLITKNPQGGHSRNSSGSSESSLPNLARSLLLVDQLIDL
Description: The assays were performed in U-bottom 384-well plates. […] The reactions were initiated by the combination of bacterially expressed, GST-Xa-hAAK1 with substrates and test compounds. The reactions were incubated at room temperature for 3 hours and terminated by adding 60 μl of 35 mM EDTA buffer to each sample. The reactions were analyzed on the Caliper LabChip 3000 (Caliper, Hopkinton, Mass.) by electrophoretic separation of the fluorescent substrate and phosphorylated product. […] Compounds were dissolved at 10 mM in dimethylsulfoxide (DMSO) and evaluated at eleven concentrations. IC50 values were derived by non-linear regression analysis.

T1 sequence (Q2M2I8 whole entry): as above

Row | Structure (SMILES) | IC50 [1] | IC50 [2] | IC50 ([2]; given as IC50 range) | IC50 ([1]; given as IC50 range)
1 | CC(C)C[C@H](N)COc1ccc2c(c1)[nH]c(=O)c1cnccc12 [Example 1, (S)-8-(2-amino-4-methylpentyloxy)benzo[c][2,7]naphthyridin-5(6H)-one] | 14 nM | 5.7 nM |  | 
2 | CC(C)C[C@H](N)COc1ccc2c3ccncc3c(=O)n(C)c2c1 [Example 2, (S)-8-((2-amino-4-methylpentyl)oxy)-6-methylbenzo[c][2,7]naphthyridin-5(6H)-one] | 7 nM |  | 1 to 10 nM | 
3 | CC(C)C[C@H](N)COc1cc2c(cc1Br)c1ccncc1c(=O)n2C [Example 3, (S)-8-((2-amino-4-methylpentyl)oxy)-9-bromo-6-methylbenzo[c][2,7]naphthyridin-5(6H)-one] | 1.6 nM | 2.7 nM |  | 
4 | CC(C)C[C@H](N)COc1cc2c(cc1C1CC1)c1ccncc1c(=O)n2C [Example 6, (S)-8-((2-amino-4-methylpentyl)oxy)-9-cyclopropyl-6-methylbenzo[c][2,7]naphthyridin-5(6H)-one] | 2.1 nM |  | 1 to 10 nM | 
5 | C=CCn1c(=O)c2cnccc2c2ccc(OC[C@@H](N)CC(C)C)cc21 [Example 9, (S)-6-allyl-8-((2-amino-4-methylpentyl)oxy)benzo[c][2,7]naphthyridin-5(6H)-one] | 24 nM | 9.7 nM |  | 
6 | CC(C)C[C@H](N)COc1cc2c(cc1F)c1ccncc1c(=O)n2C [Example 14, (S)-8-((2-amino-4-methylpentyl)oxy)-9-fluoro-6-methylbenzo[c][2,7]naphthyridin-5(6H)-one] |  | 7 nM |  | 1 to 10 nM
7 | Cn1c(=O)c2cnccc2c2ccc(OCC(N)CCC(F)(F)F)cc21 (stereo not drawn) [Example 15, 8-(2-amino-5,5,5-trifluoropentyloxy)-6-methylbenzo[c][2,7]naphthyridin-5(6H)-one] |  |  | 10 to 100 nM | 10 to 100 nM
8 | Cc1nccc2c1c(=O)n(C)c1cc(OC[C@@H](N)CC(C)C)ccc21 [Example 16, (S)-8-((2-amino-4-methylpentyl)oxy)-4,6-dimethylbenzo[c][2,7]naphthyridin-5(6H)-one] |  |  | 10 to 100 nM | 10 to 100 nM
9 | CC(C)C[C@H](N)COc1ccc2c3ccnc(N)c3c(=O)n(C)c2c1 [Example 17, (S)-4-amino-8-(2-amino-4-methylpentyloxy)-6-methylbenzo[c][2,7]naphthyridin-5(6H)-one] |  | 3 nM |  | 1 to 10 nM
10 | Cc1nccc2c1c(=O)n(C)c1cc(OC[C@H](N)CC(C)C)ccc21 [Example 19, (R)-8-((2-amino-4-methylpentyl)oxy)-4,6-dimethylbenzo[c][2,7]naphthyridin-5(6H)-one] |  |  | 10 to 100 nM | 10 to 100 nM
11 | Cc1nccc2c1c(=O)n(C)c1cc(OC[C@H](N)CC(C)C)c(Cl)cc21 [Example 20, (R)-8-((2-amino-4-methylpentyl)oxy)-9-chloro-4,6-dimethylbenzo[c][2,7]naphthyridin-5(6H)-one] |  |  | 1 to 10 nM | 1 to 10 nM
12 | Cc1nccc2c1c(=O)n(C)c1cc(OC[C@@H](N)CC3CC3)c(Cl)cc21 [Example 23, (S)-8-(2-amino-3-cyclopropylpropoxy)-9-chloro-4,6-dimethylbenzo[c][2,7]naphthyridin-5(6H)-one] |  | 0.12 nM |  | 1 to 10 nM
13 | Cc1nccc2c1c(=O)n(C)c1cc(OC[C@@H](N)CC3CCC3)c(Cl)cc21 [Example 24, (S)-8-(2-amino-3-cyclobutylpropoxy)-9-chloro-4,6-dimethylbenzo[c][2,7]naphthyridin-5(6H)-one] |  |  | 1 to 10 nM | 1 to 10 nM
14 | Cc1cc2c3ccnc(C)c3c(=O)n(C)c2cc1OC[C@@H](N)CC1CC1 [Example 25, (S)-8-(2-amino-3-cyclopropylpropoxy)-4,6,9-trimethylbenzo[c][2,7]naphthyridin-5(6H)-one] |  | 0.55 nM |  | 1 to 10 nM
15 | Cc1cc2c3ccnc(C)c3c(=O)n(C)c2cc1OC[C@@H](N)CC1CCC1 [Example 26, (S)-8-(2-amino-3-cyclobutylpropoxy)-4,6,9-trimethylbenzo[c][2,7]naphthyridin-5(6H)-one] |  | 2.9 nM |  | 1 to 10 nM
